Results reported in US11564913B2, “Compositions and methods for treating cancer” (Children's Hospital Medical Center, priority 2019, dated 2023).

What was measured:
[1] = tested on: wild-type murine BM leukemic cells expressing p190-BCR-ABL; assay: Colony formation assay (CFU-proB); assay type: cell-based
Method: FIG. 14: IODVA1 targets Vav3 in vitro and in vivo. (A) Ba/F3 cells expressing empty vector Mieg3 or p190-BCR-ABL1 were treated with vehicle control or IODVA1 (IO1, 3 μM) for 30 min and incubated with GST-Rac and glutathione beads. Beads were washed and the protein complexes were separated on SDS-PAGE and immunoblotted for pVav3. Input Vav3 was used as control. (B) Binding affinity (Kd) between IODVA1 and Vav3 (green), LARG (brown), and RacGDP (blue). […] Error bars=SD; N=3. (C) Quantification of the average number of colonies made by bone marrow wild-type (black) and Vav3^−/− (lilac) p190-BCR-ABL1 leukemic cells treated with vehicle control or IODVA1 (IO1, 1 and 3 μM) (* p≤0.05; ** p≤0.01; *** p≤0.001; ns, not significant). […] (E) Quantification by densitometry of the pVav3 band from FIG. 14A. […]
B-cell lineage colony-forming units (CFU-proB) were quantified post 9-day culture of leukemic BM cells or sorted for p190-BCR-ABL-expressing B-cell progenitors in M3134 methylcellulose (StemCell Technologies) supplemented with 30% FBS (for mouse B lymphoid colony forming cells; StemCell Technologies), […] L-glutamine (Invitrogen), 1% penicillin-streptomycin (Invitrogen), 100 μM β-mercaptoethanol (Fisher-Scientific), 1% BSA (Sigma-Aldrich), 20 ng/mL of recombinant mouse IL-7 (PeproTech), and 100 ng/mL of recombinant mouse SCF (PeproTech).

[2] = tested on: empty vector (Mieg3)-expressing Ba/F3 cells; assay: Cell survival/viability, trypan blue exclusion; assay type: cell-based, murine; details: IODVA1
[3] = tested on: p190-BCR-ABL leukemic propagating cells; assay: Serial transplantation into secondary recipients (leukemic propagating activity); assay type: in vivo, mice; details: week 5 post transplantation
Source text: LDBM cells were transduced with bicistronic p190-BCR-ABL1/EGFP retrovirus and transplanted into recipient mice. After initial assessment of leukemic burden, drugs were delivered in subcutaneously implanted osmotic pumps, each lasting two weeks. (D) Kaplan-Meier survival plot of secondary mice transplants with the 10^6-cell dilution.
(F) Count (%) of residual leukemic (EGFP^+-BCR-ABL1) cells in peripheral blood at weeks 3 and 5 for the secondary transplant mice from FIG. 1D. (G) Kaplan-Meier survival plot of secondary mice transplants with the 0.3×10^6 cell-dilution. (H) Count (%) of residual leukemic (EGFP^+-BCR-ABL1) cells in peripheral blood at weeks 3 and 5 for the secondary transplant mice from (G). (I & J) similar to G & H but with the 0.1×10^6 cell-dilution.

## OC1(c2ccccn2)N=C(Nc2nc3ccccc3[nH]2)N=C1c1ccccn1 (stereo not shown) [IODVA1, (Z)-2-((1H-benzo[d]imidazol-2-yl)imino)-4,5-di(pyridin-2-yl)-2,5-dihydro-1H-imidazol-5-ol]
[1]; 1 μM
  decrease in number of colonies (average): 3 folds
[1]; 3 μM
  decrease in number of colonies (average): 7 folds
[2]
  inhibition of survival: not
[3]
  eradication of leukemic cell burden in peripheral blood of secondary transplanted mice: superior to imatinib
